Assay results reported in patent US20020192827A1, “Novel vector for C. glabrata and the use thereof” (priority 2000, published 2002).

Tested on: C. glabrata strain ATCC 200989
Experiment: geneticin resistance growth test on -Ura medium, uninduced and copper-induced
Type: cell-based, Candida glabrata
Protocol: C. C. glabrata strain with expression plasmid pFPG1 lacking or carrying the wildtype neomycin/kanamycin resistance gene (which confers resistance to the antibiotic geneticin), on -Ura media supplemented with 1 mg/ml geneticin.
C. C. glabrata strain with expression plasmid pFPG2 lacking or carrying the wildtype neomycin/kanamycin resistance gene (which confers resistance to the antibiotic geneticin), on -Ura media supplemented with 1 mg/ml geneticin.
The neomycin/kanamycin resistance gene from Tn903 confers resistance of C. glabrata to the antibiotic G418, geneticin (Cormack and Falkow, 1999). The pFPG1-NEO plasmid and empty pFPG1 as a control were transformed into C. glabrata strain ATCC 200989 and tested for geneticin resistance under uninduced and induced conditions (FIG. 3C). […] In this case, induction of the MT-1 promoter in pFPG1 was not absolutely necessary to obtain adequate expression of the NEO gene.
The NEO pFPG2 plasmid and empty pFPG2 as a control were transformed into C. glabrata strain ATCC 200989 and tested for geneticin resistance on -Ura medium under uninduced and induced conditions (FIG. 6).

## CN[C@@H]1[C@@H](O)[C@@H](O[C@@H]2[C@@H](O)[C@H](O[C@H]3O[C@H]([C@@H](C)O)[C@@H](O)[C@H](O)[C@H]3N)[C@@H](N)C[C@H]2N)OC[C@]1(C)O [geneticin]
Strain ATCC 200989 with empty pFPG1 plasmid
  geneticin concentration required to suppress growth: about 1 mg/ml
Strain ATCC 200989 with empty pFPG2 plasmid, -Ura medium
  geneticin concentration required to suppress growth: about 1 mg/ml
